Reference: patent US20250376464A1 (Trawsfynydd Therapeutics, Inc., priority 2022, published 2025)

Molecular target: SARS-CoV2-Mpro (Severe acute respiratory syndrome coronavirus 2 (2019-nCoV) (SARS-CoV-2), UniProt P0DTD1)
Experiment: Primary assay: SARS-CoV2-Mpro enzymatic activity inhibition
Format: biochemical
Settings: enzyme preincubated with compound for 20 min; slope of linear portion of signal
Method: Example A. Primary Assay Used to Determine Potency of SARS-CoV2-Mpro Enzymatic Activity Inhibition
• (1) Deliver 2× Enzyme • (2) Deliver buffer into No Enzyme wells • (3) Deliver compounds in 100% DMSO by using Acoustic technology (Echo550; nanoliter range) • (4) Incubate for 20 min • (5) Deliver 2× Substrate to initiate the reaction • (6) Spin & shake, start measuring in EnVision at rt; 5 min interval for 25 (2 hours) • (7) Analyze data by taking slope (signal/time) of linear portion of measurement • (8) Slope is calculated by using Excel, and curve fits are performed using Prism software.
The % inhibition was then used to calculate the IC50 values. The IC50 values are shown in Table A, wherein “A” corresponds to IC50<10.0 nm, “B” corresponds to 10.0 nm≤IC50<50.0 nm, “C” corresponds to 50.0 nm≤IC50<100.0 nm, “D” corresponds to 100.0 nm≤IC50<500.0 nm, and “E” corresponds to 500.0 nm≤IC50<1000.0 nm, and “F” corresponds to 1000.0 nm≤IC50.

SMILES	IC50 [nM]
CCOC(=O)N[C@H](C(=O)N1C[C@H]2C([C@H]1C(=O)N[C@H](C#N)CC1C(=O)Nc3ccccc31)C2(C)C)C(C)(C)C (stereo in doubt) [Compound 244, Ethyl N-[(1S)-1-[(1S)-2-[[(1S)-1-cyano-2-(2-oxoindolin-3-yl)ethyl]carbamoyl]-6,6-dimethyl-3-azabicyclo[3.1.0]hexane-3-carbonyl]-2,2-dimethyl-propyl]carbamate]	10 to 50
CC(C)(C)[C@H](NC(=O)C(F)(F)F)C(=O)N1C[C@H]2C([C@H]1C(=O)N[C@H](C#N)CC1C(=O)Nc3ccc(F)cc31)C2(C)C (stereo in doubt) [Compound 236, (1S,2S,5S)-N-[(1S)-1-cyano-2-(5-fluoro-2-oxo-indolin-3-yl)ethyl]-3-[(2S)-3,3-dimethyl-2-[(2,2,2-trifluoroacetyl)amino]butanoyl]-6,6-dimethyl-3-azabicyclo[3.1.0]hexane-2-carboxamide]	10 to 50
CC(C)(C)[C@H](NC(=O)C(F)(F)F)C(=O)N1C[C@H]2C([C@H]1C(=O)N[C@H](C#N)CC1C(=O)Nc3c(Cl)cccc31)C2(C)C (stereo in doubt) [Compound 235, (1S,2S,5S)-N-[(1S)-2-(7-chloro-2-oxo-indolin-3-yl)-1-cyano-ethyl]-3-[(2S)-3,3-dimethyl-2-[(2,2,2-trifluoroacetyl)amino]butanoyl]-6,6-dimethyl-3-azabicyclo[3.1.0]hexane-2-carboxamide]	< 10
COc1ccc2c(c1)NC(=O)C2C[C@@H](C#N)NC(=O)[C@@H]1[C@H]2[C@H](CN1C(=O)[C@@H](NC(=O)C(F)(F)F)C(C)(C)C)C2(C)C (stereo partly drawn) [Compound 222, (1S,2S,5S)-N-[(1S)-1-cyano-2-(6-methoxy-2-oxo-indolin-3-yl)ethyl]-3-[(2S)-3,3-dimethyl-2-[(2,2,2-trifluoroacetyl)amino]butanoyl]-6,6-dimethyl-3-azabicyclo[3.1.0]hexane-2-carboxamide]	10 to 50
